The source of these data is patent US20160046618A1, “Cyclopropyl Fused Thiazin-2-Amine Compounds as Beta-Secretase Inhibitors and Methods of Use” (AMGEN INC., priority 2014, published 2016).

For one assay, the target named is human recombinant BACE2 (Homo sapiens (Human), UniProt Q9Y5Z0). Briefly: In vitro enzymatic BACE2 FRET assay. The class given is biochemical. To be noted: read-out: IC50 IP (μM) BACE2 enzyme. An outline of the steps: (§1)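 Tris addition raises the pH to neutral to stop the reaction before fluorescence is measured at 590 nm emission with 488 nm excitation.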
The next assay concerns the target human recombinant BACE1 (Homo sapiens (Human), UniProt P56817). In words: In vitro enzymatic BACE1 FRET assay. The class given is biochemical. The following applies: read-out: IC50 IP (μM) BACE1 enzyme. An outline of the steps: as §1
In assay [1] the test system is Aβ40 in conditioned medium of cells stably expressing Amyloid Precursor Protein (APP). Briefly: In vitro BACE-1 cell-based assay (Aβ40 sandwich ELISA). To be noted: read-out: IC50 IP (μM) BACE1 cell. The gist of the method:
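Read-out: time-resolved fluorescence (Streptavidin-Europium) of Aβ40 captured by pAb40 and detected with biotinylated 6E10 from supernatants of APP-stable cells. Cells were exposed to compound for 24 h, 10-point dose response, top dose 100 μM or 10 μM, 0.1% DMSO. IC50 fitted to percent of control.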

In the next assay the test system is Aβ 40 in rat CSF. In words: In vivo inhibition of beta-secretase: Aβ40 reduction in rat CSF. To be noted: 10 mpk, after 4 h. The gist of the method: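 Male Sprague Dawley rats (200 g) dosed orally in 2% HPMC, 1% Tween80, pH 2.2, at 3, 10 or 30 mg/kg; CSF and brain taken 4 h later. Brain homogenate centrifuged at 355,000 g; Aβ40 measured by ECL sandwich ELISA (4G8 capture, Abeta40 C-terminal Fab detection), as % reduction versus vehicle controls.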

The next assay has as its system Aβ 40 in rat brain. In words: In vivo inhibition of beta-secretase: Aβ40 reduction in rat brain. The following applies: 10 mpk, after 4 h. The gist of the method:
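Rats were dosed by oral gavage at up to 100 mg/kg in 2% HPMC, 1% Tween80, pH 2.2, with vehicle-only controls. Supernatant Aβ40 was measured by ECL sandwich ELISA with biotinylated-4G8 capture and C-terminal Fab40 detection.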

In the next assay the target is Recombinant Cat D (Homo sapiens (Human), UniProt P07339). Briefly: In vitro enzymatic Cathepsin D (Cat D) FRET assay. The class given is biochemical. To be noted: read-out: IC50 IP (μM) CatD. The gist of the method:
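Cleavage of a 20 nM FRET peptide by CHO-derived Cat D over 1 h at pH 3.5 (citrate buffer with CHAPS, 10% DMSO final). Endpoint fluorescence is read after Tris quench.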

Usually IC50 stands for the midpoint of a concentration-inhibition curve.

Structures are written as SMILES.

Chain of Recombinant Cat D (P07339 65-412): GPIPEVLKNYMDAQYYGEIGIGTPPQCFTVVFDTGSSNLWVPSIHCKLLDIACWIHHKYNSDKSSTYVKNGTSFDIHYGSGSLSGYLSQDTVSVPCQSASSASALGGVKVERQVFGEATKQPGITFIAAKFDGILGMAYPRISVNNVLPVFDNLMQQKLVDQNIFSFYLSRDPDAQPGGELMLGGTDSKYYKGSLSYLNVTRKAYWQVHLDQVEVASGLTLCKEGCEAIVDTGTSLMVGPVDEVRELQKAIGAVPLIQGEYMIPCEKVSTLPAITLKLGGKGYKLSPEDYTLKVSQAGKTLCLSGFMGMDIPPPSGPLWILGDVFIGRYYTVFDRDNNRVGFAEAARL
Chain of human recombinant BACE1 (P56817 46-501): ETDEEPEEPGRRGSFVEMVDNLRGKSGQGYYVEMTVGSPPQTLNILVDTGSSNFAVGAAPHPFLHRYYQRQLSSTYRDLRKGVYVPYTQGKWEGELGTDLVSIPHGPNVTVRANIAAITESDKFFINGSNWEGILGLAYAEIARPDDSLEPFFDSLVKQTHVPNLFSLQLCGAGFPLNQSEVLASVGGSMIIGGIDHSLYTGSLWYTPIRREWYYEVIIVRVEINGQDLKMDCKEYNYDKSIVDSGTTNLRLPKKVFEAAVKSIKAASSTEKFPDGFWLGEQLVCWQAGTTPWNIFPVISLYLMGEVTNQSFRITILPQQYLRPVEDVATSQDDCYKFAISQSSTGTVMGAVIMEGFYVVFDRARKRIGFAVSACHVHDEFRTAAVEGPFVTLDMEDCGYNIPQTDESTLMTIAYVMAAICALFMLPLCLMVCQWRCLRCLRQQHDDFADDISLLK
Chain of human recombinant BACE2 (Q9Y5Z0 63-518): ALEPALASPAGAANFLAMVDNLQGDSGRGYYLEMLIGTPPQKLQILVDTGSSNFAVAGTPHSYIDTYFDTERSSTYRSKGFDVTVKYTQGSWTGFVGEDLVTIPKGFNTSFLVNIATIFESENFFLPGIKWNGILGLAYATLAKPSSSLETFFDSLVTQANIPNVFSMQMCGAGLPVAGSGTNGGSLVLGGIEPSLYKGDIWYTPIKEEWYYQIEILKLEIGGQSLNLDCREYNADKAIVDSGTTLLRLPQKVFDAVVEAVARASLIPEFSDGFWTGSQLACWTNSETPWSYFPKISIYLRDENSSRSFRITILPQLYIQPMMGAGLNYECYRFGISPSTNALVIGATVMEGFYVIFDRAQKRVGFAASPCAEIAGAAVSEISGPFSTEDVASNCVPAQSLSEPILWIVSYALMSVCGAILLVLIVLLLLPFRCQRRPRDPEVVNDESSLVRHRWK

With `C#CCOc1cnc2c(Nc3cc(F)c(F)c([C@@]4(C)N=C(N)S[C@@]5(C(F)F)C[C@@H]45)c3)nccc2n1` [Example 805, N-(3-((1S,5S,6S)-3-amino-1-(difluoromethyl)-5-methyl-2-thia-4-azabicyclo[4.1.0]hept-3-en-5-yl)-4,5-difluorophenyl)-2-(2-propyn-1-yloxy)pyrido[3,4-b]pyrazin-5-amine], the IC50 was determined as 0.0189 µM on human recombinant BACE2, 0.000222 µM on human recombinant BACE1, 0.00497 µM in assay [1] and 27 µM on Recombinant Cat D. Moreover, the “% Aβ 40 reduction in rat CSF at 10 mpk” value in the assay with Aβ 40 in rat CSF amounted to 59%. The “% Aβ 40 reduction in rat brain at 10 mpk” value with Aβ 40 in rat brain is 53%.
Take `C#CCOc1cnc2c(Nc3cc(F)c(F)c([C@@]4(C)N=C(N)S[C@@]5(CF)C[C@H]54)c3)nccc2n1` [Example 806, N-(3-((1S,5S,6S)-3-amino-1-(fluoromethyl)-5-methyl-2-thia-4-azabicyclo[4.1.0]hept-3-en-5-yl)-4,5-difluorophenyl)-2-(2-propyn-1-yloxy)pyrido[3,4-b]pyrazin-5-amine]: the half-inhibitory concentration (IC50) on human recombinant BACE2 was found to be 0.0242 µM; at human recombinant BACE1, 0.000489 µM; in assay [1], 0.00772 µM; at Recombinant Cat D it was 122 µM. Besides, the “% Aβ 40 reduction in rat CSF at 10 mpk” value with Aβ 40 in rat CSF turned out to be 70%. The “% Aβ 40 reduction in rat brain at 10 mpk” value with Aβ 40 in rat brain came out at 65%.
As for `C[C@]1(c2cc(Nc3ncnc4cc(OCc5ncco5)cnc34)cc(F)c2F)N=C(N)S[C@@]2(CF)C[C@H]21` [Example 808, N-(3-((1S,5S,6S)-3-amino-1-(fluoromethyl)-5-methyl-2-thia-4-azabicyclo[4.1.0]hept-3-en-5-yl)-4,5-difluorophenyl)-7-(1,3-oxazol-2-ylmethoxy)pyrido[3,2-d]pyrimidin-4-amine], the IC50 at human recombinant BACE2 was 0.0383 µM; on human recombinant BACE1, 0.000866 µM; in assay [1], 0.00111 µM; on Recombinant Cat D it was 127 µM. The “% Aβ 40 reduction in rat CSF at 10 mpk” value with Aβ 40 in rat CSF is 44%. The “% Aβ 40 reduction in rat brain at 10 mpk” value in the assay on Aβ 40 in rat brain is listed as 26%.
In the case of `C[C@]1(c2cc(Nc3ncnc4cc(OCc5ncco5)cnc34)cc(F)c2F)N=C(N)S[C@@]2(C(F)F)C[C@@H]12` [Example 812, N-(3-((1S,5S,6S)-3-amino-1-(difluoromethyl)-5-methyl-2-thia-4-azabicyclo[4.1.0]hept-3-en-5-yl)-4,5-difluorophenyl)-7-(1,3-oxazol-2-ylmethoxy)pyrido[3,2-d]pyrimidin-4-amine], the IC50 on human recombinant BACE2 is 0.0642 µM; on human recombinant BACE1 it was 0.000827 µM; in assay [1], 0.00167 µM; on Recombinant Cat D, 118 µM. Besides, the “% Aβ 40 reduction in rat CSF at 10 mpk” value with Aβ 40 in rat CSF stood at 52%. Besides, the “% Aβ 40 reduction in rat brain at 10 mpk” value with Aβ 40 in rat brain is 38%.
As to `C#CCOc1cnc2c(Nc3cc(F)c(F)c([C@@]4(C)N=C(N)S[C@@]5(CF)C[C@H]54)c3)ncnc2c1` [Example 813, N-(3-((1S,5S,6S)-3-amino-1-(fluoromethyl)-5-methyl-2-thia-4-azabicyclo[4.1.0]hept-3-en-5-yl)-4,5-difluorophenyl)-7-(2-propyn-1-yloxy)pyrido[3,2-d]pyrimidin-4-amine], the IC50 at human recombinant BACE2 turned out to be 0.0258 µM; at human recombinant BACE1, 0.0009 µM; in assay [1] it was 0.002 µM; on Recombinant Cat D, 447 µM. The “% Aβ 40 reduction in rat CSF at 10 mpk” value with Aβ 40 in rat CSF stood at 68%. Besides, the “% Aβ 40 reduction in rat brain at 10 mpk” value in the assay on Aβ 40 in rat brain came to 50%.
For `C[C@]1(c2cc(NC(=O)c3cnc(OCC(F)(F)F)cn3)cc(F)c2F)N=C(N)S[C@@]2(CF)C[C@H]21` [Example 814, N-(3-((1S,5S,6S)-3-amino-1-(fluoromethyl)-5-methyl-2-thia-4-azabicyclo[4.1.0]hept-3-en-5-yl)-4,5-difluorophenyl)-5-(2,2,2-trifluoroethoxy)-2-pyrazinecarboxamide], the IC50 was 0.0601 µM on human recombinant BACE2, 0.000829 µM at human recombinant BACE1, 0.00608 µM in assay [1] and 595 µM on Recombinant Cat D. Moreover, in the assay on Aβ 40 in rat CSF, the “% Aβ 40 reduction in rat CSF at 10 mpk” value is 76%. The “% Aβ 40 reduction in rat brain at 10 mpk” value with Aβ 40 in rat brain was found to be 68%.
For the compound `C#CCOc1cnc2c(Nc3ccc(F)c([C@@]4(C)N=C(N)S[C@@]5(CF)C[C@H]54)c3)nccc2n1` [Example 823, N-(3-((1S,5S,6S)-3-amino-1-(fluoromethyl)-5-methyl-2-thia-4-azabicyclo[4.1.0]hept-3-en-5-yl)-4-fluorophenyl)-2-(2-propyn-1-yloxy)pyrido[3,4-b]pyrazin-5-amine], the IC50 turned out to be 0.0296 µM at human recombinant BACE2, 0.000791 µM on human recombinant BACE1, 0.00186 µM in assay [1] and 351 µM at Recombinant Cat D. The “% Aβ 40 reduction in rat CSF at 10 mpk” value with Aβ 40 in rat CSF is recorded as 78%. The “% Aβ 40 reduction in rat brain at 10 mpk” value in the assay on Aβ 40 in rat brain turned out to be 78%.
Take `C#C[C@H](C)Oc1cnc2c(Nc3ccc(F)c([C@@]4(C)N=C(N)S[C@@]5(CF)C[C@H]54)c3)nccc2n1` [Example 827, N-(3-((1S,5S,6S)-3-amino-1-(fluoromethyl)-5-methyl-2-thia-4-azabicyclo[4.1.0]hept-3-en-5-yl)-4-fluorophenyl)-2-(((1S)-1-methyl-2-propyn-1-yl)oxy)pyrido[3,4-b]pyrazin-5-amine]: the IC50 on human recombinant BACE2 was found to be 0.263 µM; at human recombinant BACE1, 0.000771 µM; in assay [1], 0.0207 µM; on Recombinant Cat D, 810 µM. Also, the “% Aβ 40 reduction in rat CSF at 10 mpk” value with Aβ 40 in rat CSF was 41%. Moreover, the “% Aβ 40 reduction in rat brain at 10 mpk” value in the assay on Aβ 40 in rat brain was found to be 19%.
Turning to `Cc1nc(COc2cnc3c(Nc4ccc(F)c([C@@]5(C)N=C(N)S[C@@]6(CF)C[C@H]65)c4)nccc3n2)no1` [Example 828, N-(3-((1S,5S,6S)-3-amino-1-(fluoromethyl)-5-methyl-2-thia-4-azabicyclo[4.1.0]hept-3-en-5-yl)-4-fluorophenyl)-2-((5-methyl-1,2,4-oxadiazol-3-yl)methoxy)pyrido[3,4-b]pyrazin-5-amine], the IC50 came to 0.207 µM on human recombinant BACE2, 0.00496 µM at human recombinant BACE1, 0.00446 µM in assay [1] and 995 µM at Recombinant Cat D. The “% Aβ 40 reduction in rat CSF at 10 mpk” value with Aβ 40 in rat CSF came to 24%. In addition, the “% Aβ 40 reduction in rat brain at 10 mpk” value with Aβ 40 in rat brain is listed as 10%.
Consider `COC[C@]12C[C@H]1[C@@](C)(c1cc(NC(=O)c3cnc(OCC(F)(F)F)cn3)ccc1F)N=C(N)S2` [Example 831, N-(3-((1S,5S,6S)-3-amino-1-(methoxymethyl)-5-methyl-2-thia-4-azabicyclo[4.1.0]hept-3-en-5-yl)-4-fluorophenyl)-5-(2,2,2-trifluoroethoxy)-2-pyrazinecarboxamide], for which the IC50 was 0.118 µM at human recombinant BACE2, 0.00299 µM on human recombinant BACE1, 0.00359 µM in assay [1] and over 400 µM at Recombinant Cat D. The “% Aβ 40 reduction in rat CSF at 10 mpk” value with Aβ 40 in rat CSF is listed as 49%. Also, in the assay with Aβ 40 in rat brain, the “% Aβ 40 reduction in rat brain at 10 mpk” value was 16%.
On to `C#CCOc1cnc(C(=O)Nc2ccc(F)c([C@@]3(C)N=C(N)S[C@@]4(COC)C[C@H]43)c2)cn1` [Example 834, N-(3-((1S,5S,6S)-3-amino-1-(methoxymethyl)-5-methyl-2-thia-4-azabicyclo[4.1.0]hept-3-en-5-yl)-4-fluorophenyl)-5-(2-propyn-1-yloxy)-2-pyrazinecarboxamide], for which the IC50 worked out at 0.0127 µM on human recombinant BACE2, 0.000404 µM on human recombinant BACE1, 0.000489 µM in assay [1] and 318 µM at Recombinant Cat D. Further, the “% Aβ 40 reduction in rat CSF at 10 mpk” value in the assay with Aβ 40 in rat CSF stood at 83%. Moreover, the “% Aβ 40 reduction in rat brain at 10 mpk” value in the assay on Aβ 40 in rat brain was determined as 83%.
Consider `C#CCOc1cnc2c(Nc3cc(F)c(F)c([C@@]4(CF)N=C(N)S[C@H]5C[C@H]54)c3)nccc2n1` [Example 841, N-(3-((1S,5S,6S)-3-amino-5-(fluoromethyl)-2-thia-4-azabicyclo[4.1.0]hept-3-en-5-yl)-4,5-difluorophenyl)-2-(2-propyn-1-yloxy)pyrido[3,4-b]pyrazin-5-amine], for which the IC50 on human recombinant BACE2 is 0.0449 µM; at human recombinant BACE1, 0.00114 µM; in assay [1] it was 0.0216 µM; at Recombinant Cat D, 598 µM. Besides, the “% Aβ 40 reduction in rat CSF at 10 mpk” value with Aβ 40 in rat CSF is 58%. Also, the “% Aβ 40 reduction in rat brain at 10 mpk” value with Aβ 40 in rat brain was 44%.
On to `NC1=N[C@](CF)(c2cc(Nc3nccc4nc(OCc5ncco5)cnc34)cc(F)c2F)[C@@H]2C[C@@H]2S1` [Example 842, N-(3-((1S,5S,6S)-3-amino-5-(fluoromethyl)-2-thia-4-azabicyclo[4.1.0]hept-3-en-5-yl)-4,5-difluorophenyl)-2-(1,3-oxazol-2-ylmethoxy)pyrido[3,4-b]pyrazin-5-amine], for which the IC50 is 0.119 µM at human recombinant BACE2, 0.00256 µM on human recombinant BACE1, 0.0217 µM in assay [1] and over 400 µM on Recombinant Cat D. Further, the “% Aβ 40 reduction in rat CSF at 10 mpk” value with Aβ 40 in rat CSF is recorded as 51%. Also, the “% Aβ 40 reduction in rat brain at 10 mpk” value in the assay on Aβ 40 in rat brain was found to be 25%.
